The results in this text go back to US20260374739A1, “SMALL MOLECULAR WEIGHT CHEMICAL COMPOUND TO ANTAGONIZE EPH-EPHRIN TETRAMERIZATION AND INHIBIT BIDIRECTIONAL SIGNALING” (THE BOARD OF REGENTS OF THE UNIVERSITY OF TEXAS SYSTEM, priority 2022, published 2026).

This test deals with T1, EphB2-EphrinA5 (Mus musculus, UniProt P54763).
T1 sequence (P54763 19-543 limits assumed): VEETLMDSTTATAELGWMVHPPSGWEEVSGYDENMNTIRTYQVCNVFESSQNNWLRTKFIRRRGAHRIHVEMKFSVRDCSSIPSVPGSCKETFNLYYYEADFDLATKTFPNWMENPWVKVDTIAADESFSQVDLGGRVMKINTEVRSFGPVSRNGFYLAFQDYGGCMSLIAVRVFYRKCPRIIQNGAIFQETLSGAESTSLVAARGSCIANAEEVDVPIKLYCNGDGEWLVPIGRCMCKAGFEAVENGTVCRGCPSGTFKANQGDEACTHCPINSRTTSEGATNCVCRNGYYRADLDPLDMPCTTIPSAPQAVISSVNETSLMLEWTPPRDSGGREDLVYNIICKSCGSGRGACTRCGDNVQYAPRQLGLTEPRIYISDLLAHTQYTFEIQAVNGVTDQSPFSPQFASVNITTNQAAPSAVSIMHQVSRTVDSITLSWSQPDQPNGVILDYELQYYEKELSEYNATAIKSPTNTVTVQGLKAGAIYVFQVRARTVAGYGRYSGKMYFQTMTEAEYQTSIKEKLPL
The test is described as follows: Octet, immobilized EphB2 binding to human EphrinA5. The following applies: for IC50: mEphB2-hEphrinA5, immobilized mouse EphB2, 50 nM soluble human EphrinA5. How it is done:
The Octet system was used to probe the interactions of epitope-tagged human A class proteins, focusing on immobilized EphA3 binding to two of its cognate ligands, EphrinA1 and EphrinA5, as well as EphB2 binding to EphrinA5 (FIG. 27). […] Focusing on the dimerization-driven EphA3-EA5 interaction first (green sensorgram trace), which mimics what is disclosed above for EphB4-EB2, the initial binding of soluble EphrinA5 to the immobilized EphA3 is very fast and strong with a long and steep 84° slope of response that then quickly bends around 35 sec into the association step to form a more gradual tetramerization accumulation slope. […] However, again like the EphB4-EB2 interaction, once placed into dissociation, a significant fraction of the bound EA5 protein melts quickly and the off phase continues downward with a slow gradual decline in bound protein. Although the dissociation was for only 500 sec, the continued downward slope of the response indicates most of the bound EA5 protein would eventually melt off of the immobilized EphA3 protein. This is referred to as a classic dimerization-driven interaction, fast and strong initial binding in the association step but with most of the bound protein coming off in the dissociation due to lack of formation of stable tetramers. EphA3 interacts with EphrinA1 with totally different kinetics/dynamics (orange sensorgram trace). Here, the initial high 84° dimerization slope phase is extremely brief (5 sec) with the binding quickly snapping into a linear tetramerization accumulation phase with a 25° slope, and that once placed into dissociation step almost no bound protein melts, just the small amount that would represent dimer interactions falling off in the first few seconds after being placed into dissociation. […] EphB2 interacting with EA5 is similar to the EphA3-EA1 interaction, in that the association step is characterized by a very brief (5 sec) high 84° slope phase that quickly bends into a more gradual tetramer accumulation phase (blue sensorgram trace). […] The strong initial off phase of the EphB2-EA5 complexes in the dissociation represents both the melting of weak dimers and of the relatively weaker affinity tetramers formed by the cross A/B class EphB2-EA5 molecules. […]
The novel compound A20-I is a halogen replacement that changes the 7-bromine in A20 for iodine and had enhanced tetramerization inhibitor activity (FIGS. 38A-38D). This is evident when comparing results of A20-I and A20 salt compounds on the interaction of immobilized mouse EphB2 ectodomain binding to soluble mouse EphrinB2 ectodomain (FIG. 38A and FIG. 38B) or soluble human EphrinA5 (FIG. 38C). […] During these interactions of immobilized EphB ectodomains binding to soluble EphrinB2, the tetramer is much more surmountable by addition of an active compound than for the reverse experiment where EphrinB2 is immobilized and EphB2 is the soluble component in the assay (see FIG. 11, FIG. 17, and FIG. 25A-FIG. 25C). It is believed that the more resistant unsurmountable tetramer formed by immobilized EphrinB2 binding to soluble EphB ectodomains provides for the most rigorous test for determining IC50 values and thus utilizing this EphrinB2-EphB2 assay for analysis of all compounds, provide uniformity in observed results. The results described herein with A20-I and using the human EphrinB2-EphB2 interaction indicates replacements can be made in the 7-bromine in A20 that lead to enhanced tetramerization inhibitor activity.

[1] abbreviates: association, absolute, read-out: Absolute Association IC50.
Where [2] appears, read: association, relative, read-out: Relative Association IC50.
The mark [3] stands for this setting: dissociation, absolute, read-out: Absolute Dissociation IC50.
Where [4] appears, read: dissociation, relative, read-out: Relative Dissociation IC50.

Several values for one entry are separate records, joined by “and”; a condition that tells them apart may be missing. Equal entries are not always repeated. Where two headings read alike, the source gives them in different places.

For `Oc1c(Cl)cc(CN2CCOCC2)c2cccnc12` [Compound 4, 4-((7-chloro-8-hydroxyquinolin-1-ium-5-yl)methyl)morpholin-4-ium chloride], the IC50 was below 1000 nM under setting [1], below 1000 nM under setting [2], below 1000 nM under setting [3] and below 1000 nM under setting [4].

Turning to `Oc1c(Br)cc(CN2CCOCC2)c2cccnc12` [Compound 5, 7-bromo-5-(morpholinomethyl)quinolin-8-ol], the “formation of stable tetramers” value (1 μM) is “completely inhibited the formation of stable tetramers”.

Turning to `Oc1c(Br)cc(CN2CCOCC2)c2cccnc12` [Compound 6, 4-((7-bromo-8-hydroxyquinolin-1-ium-5-yl)methyl)morpholin-4-ium chloride], the IC50 reads like this: under setting [1], 570 nM; under setting [3], below 1000 nM.

Consider `Oc1c(I)cc(CN2CCOCC2)c2cccnc12` [Compound 8, 4-((8-hydroxy-7-iodoquinolin-1-ium-5-yl)methyl)morpholin-4-ium chloride], for which the IC50 is, setting by setting: under setting [1], 420 nM and 1590 nM; under setting [2], 220 nM and 830 nM; under setting [3], 90 nM; under setting [4], 80 nM.

`O=[N+]([O-])c1cc(CN2CCOCC2)c2cccnc2c1O` [Compound 10, 4-((8-hydroxy-7-nitroquinolin-1-ium-5-yl)methyl)morpholin-4-ium chloride]: the 50% inhibitory concentration (IC50) runs as follows: under setting [1], 4240 nM; under setting [2], 2900 nM; under setting [3], 100000 nM; under setting [4], 100000 nM.

Turning to `O=S1(=O)CCN(Cc2ccc(O)c3ncccc23)CC1` [Compound 15, 4-((8-hydroxyquinolin-1-ium-5-yl)methyl)thiomorpholin-4-ium 1,1-dioxide chloride], the IC50 under setting [1] stood at 7040 nM, the half-inhibitory concentration (IC50) under setting [2] is above 1000 nM, the IC50 under setting [3] is 8400 nM and the IC50 under setting [4] was above 1000 nM.

Consider `Oc1ccc(CN2CCN(Cc3ccc(C(F)(F)F)cc3)CC2)c2cccnc12` [Compound 48, 5-((4-(4-(trifluoromethyl)benzyl)piperazin-1-yl)methyl)quinolin-8-ol], for which the IC50 is 8240 nM under setting [1], above 1000 nM under setting [2], 1000 nM under setting [3] and 1000 nM under setting [4].
